Results as given in ChEMBL document CHEMBL3414448, “Advances in the discovery of novel antimicrobials targeting the assembly of bacterial cell division protein FtsZ” (Eur J Med Chem, 2015).
≈ marks a conversion by molar mass, not a printed value. One block for each compound: values may come before it.

Assays:
[1] = biological target: T1, Cell division protein FtsZ (Escherichia coli K-12, UniProt P0A9A6); assay: Inhibition of Escherichia coli FtsZ
T1 sequence (P0A9A6 whole entry): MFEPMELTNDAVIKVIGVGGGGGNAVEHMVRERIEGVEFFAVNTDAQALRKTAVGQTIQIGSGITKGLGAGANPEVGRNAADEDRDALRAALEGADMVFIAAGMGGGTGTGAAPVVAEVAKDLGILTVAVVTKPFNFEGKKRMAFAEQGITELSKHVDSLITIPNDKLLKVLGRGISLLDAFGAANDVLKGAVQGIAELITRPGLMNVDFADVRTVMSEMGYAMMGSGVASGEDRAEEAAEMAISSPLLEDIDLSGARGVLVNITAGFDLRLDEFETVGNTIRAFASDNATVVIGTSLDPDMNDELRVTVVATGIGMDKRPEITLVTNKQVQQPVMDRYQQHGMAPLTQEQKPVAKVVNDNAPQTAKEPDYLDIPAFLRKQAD

Bacillus subtilis [2] = assay: Antimicrobial activity against Bacillus subtilis; format: functional
[3] = biological target: T2, Cell division protein FtsZ (Bacillus subtilis (strain 168), UniProt P17865); assay: Binding affinity to Bacillus subtilis FtsZ
T2 sequence (P17865 whole entry): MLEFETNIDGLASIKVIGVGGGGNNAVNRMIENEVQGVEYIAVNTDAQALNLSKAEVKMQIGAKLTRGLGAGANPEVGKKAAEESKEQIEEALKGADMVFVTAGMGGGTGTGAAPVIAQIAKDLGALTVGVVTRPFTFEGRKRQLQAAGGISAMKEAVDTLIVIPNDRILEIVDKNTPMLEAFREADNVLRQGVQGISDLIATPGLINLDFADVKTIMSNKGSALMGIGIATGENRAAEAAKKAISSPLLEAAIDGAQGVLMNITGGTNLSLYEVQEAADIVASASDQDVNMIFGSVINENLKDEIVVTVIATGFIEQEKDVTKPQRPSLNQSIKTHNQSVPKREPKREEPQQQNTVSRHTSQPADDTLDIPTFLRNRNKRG

HeLa = assay: Cytotoxicity against human HeLa cells; format: cell-based
Staphylococcus aureus [4] = assay: Antimicrobial activity against Staphylococcus aureus; format: functional
Pseudomonas fluorescens = assay: Antimicrobial activity against Pseudomonas fluorescens; format: functional
Escherichia coli [5] = assay: Antimicrobial activity against Escherichia coli; format: functional
[6] = biological target: T1, Cell division protein FtsZ; assay: Binding affinity to Escherichia coli FtsZ by fluorescence anisotrophy
[7] = Half life in staphylococcal growth media
[8] = Half life in 100% filtered mouse serum; format: ADME
[9] = biological target: T1, Cell division protein FtsZ; assay: Inhibition of Escherichia coli FtsZ polymerization
Enterococcus faecalis [10] = assay: Antimicrobial activity against Enterococcus faecalis; format: functional
[11] = biological target: T1, Cell division protein FtsZ; assay: Inhibition of Escherichia coli FtsZ GTPase activity
Enterococcus faecium [12] = assay: Antimicrobial activity against Enterococcus faecium; format: functional
Staphylococcus aureus [13] = assay: Antimicrobial activity against community acquired methicillin-resistant Staphylococcus aureus USA300-LAC; format: functional
Staphylococcus aureus [14] = assay: Antimicrobial activity against Staphylococcus aureus UAMS1; format: functional
Staphylococcus aureus [15] = assay: Antimicrobial activity against methicillin-resistant Staphylococcus aureus; format: functional
Enterococcus = assay: Antimicrobial activity against […]-resistant Enterococcus; format: functional
Staphylococcus aureus [16] = assay: Antimicrobial activity against multidrug-resistant Staphylococcus aureus; format: functional
Bacillus subtilis [17] = assay: Antimicrobial activity against Bacillus subtilis 168; format: functional
Enterobacter cloacae = assay: Antimicrobial activity against multidrug-resistant Enterobacter cloacae 12161389; format: functional
Pseudomonas aeruginosa = assay: Antimicrobial activity against Pseudomonas aeruginosa ATCC 27853; format: functional
Escherichia coli [18] = assay: Antimicrobial activity against Escherichia coli ATCC 35218; format: functional
Streptococcus pneumoniae = assay: Antimicrobial activity against Streptococcus pneumoniae ATCC 49619; format: functional
[19] = Selectivity index, ratio of IC50 for human HeLa cells to MIC for Staphylococcus aureus MR12160636
Enterococcus faecalis [20] = assay: Antimicrobial activity against Enterococcus faecalis ATCC 29212; format: functional
Staphylococcus aureus [21] = assay: Antimicrobial activity against methicillin-sensitive Staphylococcus aureus ATCC 29213; format: functional
Enterococcus faecium [22] = assay: Antimicrobial activity against ampicillin-resistant and levofloxacin-resistant Enterococcus faecium 12160560; format: functional
Klebsiella pneumoniae = assay: Antimicrobial activity against ESBL producing Klebsiella pneumoniae ATCC 700603; format: functional
Acinetobacter baumannii = assay: Antimicrobial activity against multidrug-resistant Acinetobacter baumannii 12159796; format: functional
Escherichia coli [23] = assay: Antimicrobial activity against Escherichia coli relative to control; format: functional
Bacillus subtilis [24] = assay: Antimicrobial activity against Bacillus subtilis relative to control; format: functional

IC50 [1]: 12 µM
SMILES: CN(C)CCNc1nc(/C=C/c2ccc(Cl)cc2)nc2cc3ccccc3cc12

Kd [3]: 1.5 µM
SMILES: O=C1NC(=S)S/C1=C/c1ccc(-c2cccc(C(F)(F)F)c2)o1
GI50 (Bacillus subtilis [2]): 2 µM
IC50 (HeLa): 18.1 µM

MIC (Bacillus subtilis [2]): 1.56 µg/mL (≈ 4.53 µM)
MIC (Staphylococcus aureus [4]): 1.56 µg/mL (≈ 4.53 µM)
MIC (Pseudomonas fluorescens): 1.56 µg/mL (≈ 4.53 µM)
MIC (Escherichia coli [5]): 1.56 µg/mL (≈ 4.53 µM)
SMILES: COc1ccc(/N=C/c2ccc(OC(C)=O)c(OC)c2[N+](=O)[O-])cc1

Kd [6]: 16.6 µM
SMILES: N=C(N)c1ccc(-c2cc3ccc(C(=N)N)cc3[nH]2)cc1 [DAPI]

MIC (Bacillus subtilis [2]): 6.25 µg/mL (≈ 15.7 µM)
MIC (Staphylococcus aureus [4]): 6.25 µg/mL (≈ 15.7 µM)
MIC (Pseudomonas fluorescens): 6.25 µg/mL (≈ 15.7 µM)
MIC (Escherichia coli [5]): 6.25 µg/mL (≈ 15.7 µM)
SMILES: COc1c(OC(C)=O)ccc(/C=N/c2c(C(C)C)cccc2C(C)C)c1[N+](=O)[O-]

The remaining lines, values behind:

SMILES: CN1CCC(C(=O)NC(=O)c2c(F)ccc(OCc3nc4cc(Cl)cnc4s3)c2F)CC1
half-life [7]: 8.2 h
half-life [8]: 3.4 min

SMILES: COC(=O)CC1Cc2cc3cc(OC)c(-c4c(OC)cc5cc6c(c(O)c5c4O)C(=O)OC(CC(=O)OC)C6)c(O)c3c(O)c2C(=O)O1 (stereo not drawn) [VIRIDITOXIN]
IC50 [9]: 12.4 µM
MIC (Enterococcus faecalis [10]): 2 µg/mL (≈ 3.02 µM)
IC50 [11]: 10.6 µM
MIC (Staphylococcus aureus [4]): 4 µg/mL (≈ 6.04 µM)
MIC (Enterococcus faecium [12]): 2 µg/mL (≈ 3.02 µM)

SMILES: Oc1cc(O)cc(C/C(Cl)=C\Cc2cc(O)c(Cl)cc2O)c1
MIC (Staphylococcus aureus [13]): 1 µg/mL (≈ 2.93 µM)
MIC (Staphylococcus aureus [14]): 1 µg/mL (≈ 2.93 µM)

SMILES: Oc1cc(O)c2c(c1)C/C(Cl)=C\Cc1cc(c(Cl)cc1O)Oc1c(O)cc(cc1O)C/C(Cl)=C\Cc1cc(c(Cl)cc1O)O2
MIC (Staphylococcus aureus [15]): 1.5 µg/mL (≈ 2.21 µM)
MIC (Enterococcus): 2.9 µg/mL (≈ 4.28 µM)
MIC (Staphylococcus aureus [16]): 1.3 µg/mL (≈ 1.92 µM)

SMILES: O=C(Oc1cc(OC(=O)c2ccc(O)c(Cl)c2)c2ccccc2c1)c1ccc(O)c(Cl)c1
MIC (Bacillus subtilis [17]): 4 µg/mL (≈ 8.52 µM)
MIC (Enterobacter cloacae): 128 µg/mL (≈ 273 µM)
MIC (Pseudomonas aeruginosa): 64 µg/mL (≈ 136 µM)
MIC (Escherichia coli [18]): 128 µg/mL (≈ 273 µM)
MIC (Streptococcus pneumoniae): 32 µg/mL (≈ 68.2 µM)
Ratio [19]: 5
MIC (Enterococcus faecalis [20]): 2 µg/mL (≈ 4.26 µM)
MIC (Staphylococcus aureus [21]): 8 µg/mL (≈ 17 µM)
MIC (Enterococcus faecium [22]): 4 µg/mL (≈ 8.52 µM)
MIC (Klebsiella pneumoniae): 128 µg/mL (≈ 273 µM)
MIC (Acinetobacter baumannii): 32 µg/mL (≈ 68.2 µM)

SMILES: O=C/C=C/c1ccccc1 [CINNAMALDEHYDE]
MIC (Bacillus subtilis [2]): 0.5 µg/mL (≈ 3.78 µM)
MIC (Escherichia coli [23]): 1000 µg/mL (≈ 7570 µM)
IC50 [9]: 6.86 µM
MIC (Staphylococcus aureus [15]): 0.25 µg/mL (≈ 1.89 µM)
IC50 [11]: 5.81 µM
MIC (Bacillus subtilis [24]): 500 µg/mL (≈ 3780 µM)
MIC (Escherichia coli [5]): 1 µg/mL (≈ 7.57 µM)

SMILES: O=C(Oc1cc(OC(=O)c2cc(O)c(O)c(O)c2)c2ccccc2c1)c1cc(O)c(O)c(O)c1
MIC (Bacillus subtilis [17]): 64 µg/mL (≈ 138 µM)
MIC (Enterobacter cloacae): 128 µg/mL (≈ 276 µM)
MIC (Pseudomonas aeruginosa): 128 µg/mL (≈ 276 µM)
MIC (Escherichia coli [18]): 128 µg/mL (≈ 276 µM)
MIC (Streptococcus pneumoniae): 64 µg/mL (≈ 138 µM)
MIC (Enterococcus faecalis [20]): 64 µg/mL (≈ 138 µM)
MIC (Staphylococcus aureus [21]): 32 µg/mL (≈ 68.9 µM)
MIC (Enterococcus faecium [22]): 64 µg/mL (≈ 138 µM)
MIC (Klebsiella pneumoniae): 128 µg/mL (≈ 276 µM)
MIC (Acinetobacter baumannii): 64 µg/mL (≈ 138 µM)
